Reference: patent US11008323B2, “Substituted tricyclic 1,4-benzodiazepinone derivatives as allosteric modulators of group II metabotropic glutamate receptors” (Domain Therapeutics, priority 2015, dated 2021)
Counter-ions that a name gives are not always drawn.

Columns and labels:
[1] = molecular target: T1, human mGluR3 (hmGluR3) (Homo sapiens, UniProt Q14832); experiment: Human mGluR3 positive allosteric modulator evaluation using Ca++ functional assay; type: cell-based; conditions: hmGluR3 transiently over-expressed in HEK-293 cells; stimulated by EC50 glutamate concentration; intracellular Ca2+ (Fluo4AM, FLIPR Tetra)
T1 construct: expressed in transfected cells; host or cells: HEK-293 cells, transient co-transfection by electroporation
T1 sequence (Q14832 23-879): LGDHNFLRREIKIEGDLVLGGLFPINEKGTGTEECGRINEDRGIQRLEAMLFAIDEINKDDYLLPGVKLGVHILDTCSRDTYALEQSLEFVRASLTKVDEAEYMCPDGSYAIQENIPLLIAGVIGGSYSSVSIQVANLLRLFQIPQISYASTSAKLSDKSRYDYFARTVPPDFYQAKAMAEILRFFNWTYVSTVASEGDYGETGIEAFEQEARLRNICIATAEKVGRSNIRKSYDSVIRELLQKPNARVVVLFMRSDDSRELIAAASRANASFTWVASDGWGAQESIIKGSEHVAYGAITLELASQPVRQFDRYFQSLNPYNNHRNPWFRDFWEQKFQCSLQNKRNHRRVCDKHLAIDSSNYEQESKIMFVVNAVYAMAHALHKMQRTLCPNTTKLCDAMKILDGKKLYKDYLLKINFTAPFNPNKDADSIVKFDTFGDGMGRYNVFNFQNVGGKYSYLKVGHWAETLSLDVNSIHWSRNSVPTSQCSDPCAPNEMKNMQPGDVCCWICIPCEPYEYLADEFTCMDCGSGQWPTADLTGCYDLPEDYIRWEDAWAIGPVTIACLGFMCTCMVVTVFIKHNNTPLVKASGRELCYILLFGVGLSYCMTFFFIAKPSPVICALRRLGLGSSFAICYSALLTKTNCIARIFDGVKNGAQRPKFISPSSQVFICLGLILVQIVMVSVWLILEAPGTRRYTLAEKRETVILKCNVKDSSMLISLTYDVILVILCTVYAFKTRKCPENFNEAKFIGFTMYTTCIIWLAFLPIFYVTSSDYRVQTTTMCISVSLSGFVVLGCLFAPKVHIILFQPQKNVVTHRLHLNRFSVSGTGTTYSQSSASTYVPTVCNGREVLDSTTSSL
Outline: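 HEK-293 cells transiently co-expressing hmGluR3, a chimeric G protein and two glutamate transporters; Fluo4 calcium read on FLIPR. Compound alone for 10 min (agonist), then EC50 glutamate for 3 min (PAM); 20-point curves gave EC50, duplicate, two independent runs.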

melting point | EC50 [1] | Structure (SMILES)
136 to 143 °C |  | CCc1ncccc1-c1ccc2c(c1)-n1cccc1C(=O)N(C)C21CC1 (as salt: hydrochloride) [Example 24, 5-Methyl-9-(2-ethylpyridin-3-yl)-spiro[benzo[f]pyrrolo[1,2-a][1,4]diazepine-6,1′-cyclopropan]-4(5H)-one]
187 to 192 °C |  | CCc1ncccc1-c1ccc2c(c1)-n1cc(-c3ccnn3C)cc1C(=O)N(C)C21CC1 (as salt: hydrochloride) [Example 163]
230 to 250 °C |  | Cc1ncccc1-c1ccc2c(c1)-n1cccc1C(=O)N(C)C2(C)C (as salt: hydrochloride) [Example 223, 5,6,6-Trimethyl-9-(2-methyl-pyridin-3-yl)-5,6-dihydro-benzo[f]pyrrolo[1,2-a][1,4]diazepin-4-one]
120 to 134 °C |  | Cc1ncccc1-c1ccc2c(c1)-n1cc(N(C)C)cc1C(=O)N(C)C21CC1 (as salt: hydrochloride) [Example 154]
183 to 193 °C |  | Cc1cc(-c2ccc3c(c2)-n2cccc2C(=O)N(C)C32CC2)ccn1 (as salt: hydrochloride) [Example 26, 5-Methyl-9-(2-methylpyridin-4-yl)-spiro[benzo[f]pyrrolo[1,2-a][1,4]diazepine-6,1′-cyclopropan]-4(5H)-one]
225 to 235 °C |  | Cc1cc(-c2ccc3c(c2)-n2cc(-c4ccccc4)cc2C(=O)N(C)C32CC2)ccn1 (as salt: hydrochloride) [Example 105, 5-Methyl-2-phenyl-9-(2-methyl-pyridin-4-yl)-spiro[benzo[f]pyrrolo[1,2-a][1,4]diazepine-6,1′-cyclopropan]-4(5H)-one]
212 to 220 °C |  | Cc1cncc(-c2ccc3c(c2)-n2cc(-c4ccccc4)cc2C(=O)N(C)C32CC2)c1 (as salt: hydrochloride) [Example 98, 5-Methyl-2-phenyl-9-(5-methyl-pyridin-3-yl)-spiro[benzo[f]pyrrolo[1,2-a][1,4]diazepine-6,1′-cyclopropan]-4(5H)-one]
200 to 220 °C |  | CCN1Cc2ccc(-c3cccnc3C)cc2-n2cc(-c3ccccc3)nc2C1=O (as salt: hydrochloride) [Example 167, 5-Ethyl-9-(2-methylpyridin-3-yl)-2-phenyl-5,6-dihydro-4H-benzo[f]imidazo[1,2-a][1,4]diazepin-4-one]
210 to 220 °C |  | CN1C(=O)c2cccn2-c2cc(C3=CCN(c4ccncn4)CC3)ccc2C12CC2 (as salt: hydrochloride) [Example 47, 5-Methyl-9-(1-pyrimidin-4-yl-1,2,3,6-tetrahydro-pyridin-4-yl)-spiro[benzo[f]pyrrolo[1,2-a][1,4]diazepine-6,1′-cyclopropan]-4(5H)-one]
> 250 °C |  | CN1C(=O)c2cccn2-c2cc(-c3cccnc3)ccc2C12CC2 (as salt: hydrochloride) [Example 23, 5-Methyl-9-(pyridin-3-yl)-spiro[benzo[f]pyrrolo[1,2-a][1,4]diazepine-6,1′-cyclopropan]-4(5H)-one]
183 to 190 °C |  | Cc1ncccc1-c1ccc2c(c1)-n1cc(-c3cccc(F)c3)cc1C(=O)N(C)C21CC1 (as salt: hydrochloride) [Example 152]
> 250 °C |  | CNc1ccc(-c2ccc3c(c2)-n2cc(-c4ccccc4)cc2C(=O)N(C)C32CC2)cn1 (as salt: hydrochloride) [Example 118, 5-Methyl-2-phenyl-9-(6-methylamino-pyridin-3-yl)-spiro[benzo[f]pyrrolo[1,2-a][1,4]diazepine-6,1′-cyclopropan]-4(5H)-one]
190 to 198 °C |  | Cc1ncccc1-c1ccc2c(c1)-n1cc(C3CC3)cc1C(=O)N(C)C21CC1 (as salt: hydrochloride) [Example 155]
185 to 198 °C |  | CN1C(=O)c2cc(-c3ccccc3)cn2-c2cc(-c3ccccn3)ccc2C12CC2 (as salt: hydrochloride) [Example 111, 5-Methyl-2-phenyl-9-(pyridin-2-yl)-spiro[benzo[f]pyrrolo[1,2-a][1,4]diazepine-6,1′-cyclopropan]-4(5H)-one]
229 to 237 °C |  | Cc1ncccc1-c1ccc2c(c1)-n1cc(-c3ccnn3C)cc1C(=O)N(C)C21CC1 (as salt: hydrochloride) [Example 160]
> 250 °C |  | CN1C(=O)c2cccn2-c2cc(-c3ccc4nccn4c3)ccc2C12CC2 (as salt: hydrochloride) [Example 41, 5-Methyl-9-(imidazo[1,2-a]pyridin-6-yl)-spiro[benzo[f]pyrrolo[1,2-a][1,4]diazepine-6,1′-cyclopropan]-4(5H)-one]
185 to 190 °C |  | Cc1ncccc1-c1ccc2c(c1)-n1cc(-c3ccccc3F)cc1C(=O)N(C)C21CC1 (as salt: hydrochloride) [Example 151]

melting point | EC50 [1] | Structure (SMILES)
> 250 °C |  | Cc1ccc(-c2ccc3c(c2)-n2cccc2C(=O)N(C)C32CC2)c(C)n1 (as salt: hydrochloride) [Example 56, 5-Methyl-9-(2,6-dimethylpyridin-3-yl)-spiro[benzo[f]pyrrolo[1,2-a][1,4]diazepine-6,1′-cyclopropan]-4(5H)-one]
123 to 129 °C |  | Cc1nccnc1-c1ccc2c(c1)-n1cccc1C(=O)N(C)C21CC1 (as salt: hydrochloride) [Example 58, 5-Methyl-9-(3-methyl-pyrazin-2-yl)-5,6-spiro[benzo[f]pyrrolo[1,2-a][1,4]diazepine-6,1′-cyclopropan]-4(5H)-one]
160 to 180 °C |  | CN1C(=O)c2cccn2-c2cc(-c3cccnc3C3CC3)ccc2C12CC2 (as salt: hydrochloride) [Example 62, 5-Methyl-9-(2-cyclopropylpyridin-3-yl)-spiro[benzo[f]pyrrolo[1,2-a][1,4]diazepine-6,1′-cyclopropan]-4(5H)-one]
> 250 °C |  | Cc1cc(-c2ccc3c(c2)-n2nc(-c4ccccc4)cc2C(=O)N(C)C32CC2)ccn1 (as salt: hydrochloride) [Example 122, 9-(2-Methyl-pyridin-4-yl)-5-methyl-2-phenyl-spiro[benzo[f]pyrazolo[1,5-a][1,4]diazepine-6,1′-cyclopropan]-4(5H)-one]
240 to 250 °C |  | Cc1ncccc1-c1ccc2c(c1)-n1cc(C(F)F)cc1C(=O)N(C)C21CC1 (as salt: hydrochloride) [Example 201]
230 to 235 °C |  | Cc1ncccc1-c1ccc2c(c1)-n1cc(C3CCCC3)cc1C(=O)N(C)C21CC1 (as salt: hydrochloride) [Example 156]
227 to 234 °C |  | Cc1cc(-c2ccc3c(c2)-n2cc(-c4ccccc4)cc2C(=O)N(C)C32CC2)cc(C)n1 (as salt: hydrochloride) [Example 97, 5-Methyl-2-phenyl-9-(2,6-dimethyl-pyridin-4-yl)-spiro[benzo[f]pyrrolo[1,2-a][1,4]diazepine-6,1′-cyclopropan]-4(5H)-one]
> 250 °C |  | Cc1ncccc1-c1ccc2c(c1)-n1cc(-c3ccncc3)cc1C(=O)N(C)C21CC1 (as salt: hydrochloride) [Example 145]
 | > 1000 nM | Cc1ncccc1-c1ccc2c(c1)-n1ccnc1C(=O)N(C)C2 [Example 216, 5-Methyl-9-(2-methylpyridin-3-yl)-5,6-dihydro-4H-benzo[f]imidazo[1,2-a][1,4]diazepin-4-one]
 | < 100 nM | CN1C(=O)c2cc(-c3ccccc3)nn2-c2cc(-c3ccc(N)nc3)ccc2C12CC2 [Example 127, 9-(6-Amino-pyridin-3-yl)-5-methyl-2-phenyl-spiro[benzo[f]pyrazolo[1,5-a][1,4]diazepine-6,1′-cyclopropan]-4(5H)-one]
 | < 100 nM | CN1C(=O)c2cc(-c3ccccc3)cn2-c2cc(-c3cccnc3)ccc2C12CC2 [Example 93, 5-Methyl-2-phenyl-9-pyridin-3-yl-spiro[benzo[f]pyrrolo[1,2-a][1,4]diazepine-6,1′-cyclopropan]-4(5H)-one]
 | 100 to 1000 nM | Cc1cc(-c2ccc3c(c2)-n2cc(-c4ccccc4)cc2C(=O)N(C)C32CC2)cc(C)n1 [Example 97, 5-Methyl-2-phenyl-9-(2,6-dimethyl-pyridin-4-yl)-spiro[benzo[f]pyrrolo[1,2-a][1,4]diazepine-6,1′-cyclopropan]-4(5H)-one]
 | < 100 nM | Cc1ncccc1-c1ccc2c(c1)-n1cc(-c3ccccc3)nc1C(=O)N(C)C21CC1 [Example 140, 9-(2-Methyl-pyridin-3-yl)-5-methyl-2-phenyl-spiro[benzo[f]imidazo[1,2-a][1,4]diazepine-6,1′-cyclopropan]-4(5H)-one]
 | 100 to 1000 nM | CN1C(=O)c2cccn2-c2cc(-c3cccnc3)ccc2C12CC2 [Example 23, 5-Methyl-9-(pyridin-3-yl)-spiro[benzo[f]pyrrolo[1,2-a][1,4]diazepine-6,1′-cyclopropan]-4(5H)-one]
 | 100 to 1000 nM | Cc1ncccc1-c1ccc2c(c1F)-n1cccc1C(=O)N(C)C21CC1 [Example 75, 10-Fluoro-5-methyl-9-(2-methyl-pyridin-3-yl)-spiro[benzo[f]pyrrolo[1,2-a][1,4]diazepine-6,1′-cyclopropan]-4(5H)-one]
 | > 1000 nM | Cc1ccnc(C)c1-c1ccc2c(c1)-n1cccc1C(=O)N(C)C21CC1 [Example 65, 5-Methyl-9-(2,4-dimethylpyridin-3-yl)-spiro[benzo[f]pyrrolo[1,2-a][1,4]diazepine-6,1′-cyclopropan]-4(5H)-one]

Structure (SMILES) | melting point | EC50 [1]
CN1C(=O)c2cccn2-c2cc(C3=CCNCC3)ccc2C12CC2 (as salt: hydrochloride) [Example 46, 5-Methyl-9-(1,2,3,6-tetrahydro-pyridin-4-yl)-spiro[benzo[f]pyrrolo[1,2-a][1,4]diazepine-6,1′-cyclopropan]-4(5H)-one] | 208 to 215 °C | 
CN1C(=O)c2cccn2-c2cc(C3=CCNCC3)ccc2C12CC2 [Example 46, 5-Methyl-9-(1,2,3,6-tetrahydro-pyridin-4-yl)-spiro[benzo[f]pyrrolo[1,2-a][1,4]diazepine-6,1′-cyclopropan]-4(5H)-one] |  | > 1000 nM
